Values quoted from earlier work, collected in PubChem BioAssay AID1259409 (Chemical Carcinogenesis Research Information System (CCRIS), 2018).

Test system: rodent chemically induced tumor inhibition, incidence and multiplicity
Test: CCRIS tumor inhibitor studies
Settings: Dose [Inhibitor]: 0, Promoter: NONE USED

S=C=NCCCCc1ccccc1
tumour outcome (control, treated, inhibition, significance) (Carcinogen: 4-(METHYLNITROSAMINO)-1-(3-PYRIDYL)-1-BUTANONE, 64091-91-4, 0.2 UMOL 1/D FOR 4 D ADMINISTERED PRIOR TO CARCINOGEN TREATMENT (STUDY DURATION:116D), Route [Inhibitor]: GAVAGE, Species: MOUSE, Strain/Sex: STRAIN A, Target Tissue: Type of Lesion: LUNG: ADENOMA, Dose [Carcinogen]: 10 UMOL ONCE 2 HR AFTER FINAL DOSE OF INHIBITOR): 100%, 100%, 0%, not significant | tumour outcome (control, treated, inhibition, significance) (Carcinogen: 4-(METHYLNITROSAMINO)-1-(3-PYRIDYL)-1-BUTANONE, 64091-91-4, 1 UMOL 1/D FOR 4 D ADMINISTERED PRIOR TO CARCINOGEN TREATMENT (STUDY DURATION:116 D), Route [Inhibitor]: GAVAGE, Species: MOUSE, Strain/Sex: STRAIN A, Target Tissue: Type of Lesion: LUNG: ADENOMA, Dose [Carcinogen]: 10 UMOL ONCE 2 HR AFTER FINAL DOSE OF INHIBITOR): 100%, 42%, 58%, p<0.05 | tumour outcome (control, treated, inhibition, significance) (Carcinogen: 4-(METHYLNITROSAMINO)-1-(3-PYRIDYL)-1-BUTANONE, 64091-91-4, 5 UMOL 1/D FOR 4 D ADMINISTERED PRIOR TO CARCINOGEN TREATMENT (STUDY DURATION: 116D), Route [Inhibitor]: GAVAGE, Species: MOUSE, Strain/Sex: STRAIN A, Target Tissue: Type of Lesion: LUNG: ADENOMA, Dose [Carcinogen]: 10 UMOL ONCE 2 HR AFTER FINAL DOSE OF INHIBITOR): 100%, 11%, 89%, p<0.05 | tumour outcome (control, treated, inhibition, significance) (Carcinogen: 4-(METHYLNITROSAMINO)-1-(3-PYRIDYL)-1-BUTANONE, 64091-91-4, 5 UMOL 1/D FOR 4 D ADMINISTERED PRIOR TO CARCINOGEN DOSE (STUDY DURATION: 116 D), Route [Inhibitor]: GAVAGE, Species: MOUSE, Strain/Sex: STRAIN-A, Target Tissue: Type of Lesion: LUNG: ADENOMA, Dose [Carcinogen]: 10 UMOL IN SALINE ADMINISTERED 2 HR POST LAST AGENT DOSE): 100%, 32%, 68%, p<0.001 | tumour outcome (control, treated, inhibition, significance) (Carcinogen: 4-(N-NITROSOMETHYLAMINO)-1-(3-PYRIDYL)-1-BUTANONE, 64091-91-4, 5 UMOL/D FOR 4 CONSECUTIVE DAYS (STUDY DURATION: 16.5 WK), Route [Inhibitor]: GAVAGE, Species: MOUSE, Strain/Sex: STRAIN-A/FEMALE, Target Tissue: Type of Lesion: LUNG: ADENOMA, Dose [Carcinogen]: 10 UMOL ONCE 2 HR POST LAST AGENT DOSE): 100%, 32%, 68%, not calculated | tumour outcome (control, treated, inhibition, significance) (Carcinogen: N-NITROSOMETHYLBENZYLAMINE, 937-40-6, 0.4 UMOL/G IN DIET FOR 25 WK BEGINNING 2 WK PRIOR TO CARCINOGEN TREATMENT (STUDY DURATION: 25 WK), Route [Inhibitor]: ORAL, Species: RAT, Strain/Sex: F344/MALE, Target Tissue: Type of Lesion: ESOPHAGUS: TUMOR, Dose [Carcinogen]: 0.5 MG/KG BW IN 20% DMSO 1/WK FOR 15 WK): 100%, 93%, 7%, not significant | tumour outcome (control, treated, inhibition, significance) (Carcinogen: N-NITROSOMETHYLBENZYLAMINE, 937-40-6, 1 UMOL/G IN DIET FOR 25 WK BEGINNING 2 WK PRIOR TO CARCINOGEN TREATMENT (STUDY DURATION: 25 WK), Route [Inhibitor]: ORAL, Species: RAT, Strain/Sex: F344/MALE, Target Tissue: Type of Lesion: ESOPHAGUS: TUMOR, Dose [Carcinogen]: 0.5 MG/KG BW IN 20% DMSO 1/WK FOR 15 WK): 100%, 93%, 7%, not significant | tumour outcome (control, treated, inhibition, significance) (Carcinogen: N-NITROSOMETHYLBENZYLAMINE, 937-40-6, 2.5 UMOL/G IN DIET FOR 25 WK BEGINNING 2 WK PRIOR TO CARCINOGEN TREATMENT (STUDY DURATION: 25 WK), Route [Inhibitor]: ORAL, Species: RAT, Strain/Sex: F344/MALE, Target Tissue: Type of Lesion: ESOPHAGUS: TUMOR, Dose [Carcinogen]: 0.5 MG/KG BW IN 20% DMSO 1/WK FOR 15 WK): 100%, 100%, 0%, not significant

CC(=O)[C@H]1CC[C@H]2[C@@H]3CCC4=CC(=O)CC[C@]4(C)[C@H]3CC[C@]12C
tumour outcome (control, treated, inhibition, significance) (Carcinogen: 7,12-DIMETHYLBENZ[A]ANTHRACENE, 57-97-6, 1 MG/100 G BW 3/WK FOR 150 D BEGINNING POST CARCINOGEN TREATMENT (STUDY DURATION: 150 D), Route [Inhibitor]: SUBCUTANEOUS, Species: RAT, Strain/Sex: WISTAR/FEMALE, Target Tissue: Type of Lesion: MAMMARY GLAND: ADENOCARCINOMA, Dose [Carcinogen]: 4 MG IN 0.1 ML OF SESAME OIL INJECTED ONCE INTO THE EXPOSED MAMMARY TISSUE OF HYPERPROLACTINEMIC RATS ON DAY 73 OF AGE): 8/11 (73%), 5/11 (45%), 38%, p<0.05 | tumour outcome (control, treated, inhibition, significance) (Carcinogen: N-METHYL-N-NITROSOUREA, 684-93-5, 2560 MG/KG IN DIET FOR THE DURATION OF STUDY BEGINNING 7 D PRIOR TO CARCINOGEN DOSE (STUDY DURATION: 187 D), Route [Inhibitor]: ORAL, Species: RAT, Strain/Sex: SPRAGUE-DAWLEY/FEMALE, Target Tissue: Type of Lesion: MAMMARY GLAND: TUMOR, Dose [Carcinogen]: 50 MG/KG BW ONCE): 100%, 95%, 5%, not significant

[Mg+2]
tumour outcome (control, treated, inhibition, significance) (Carcinogen: 7,12-DIMETHYLBENZ[A]ANTHRACENE, 57-97-6, 50 UG/ML IN DRINKING WATER FROM 40-90 D OF AGE THEN 0, 30 UG/ML FROM 90-180 D OF AGE AND 0, 20 UG/ML FROM 180-240 D O, 50 UG/ML IN DRINKING WATER FROM 40-90 D OF AGE THEN 0, 30 UG/ML FROM 90-180 D OF AGE AND 0, 20 UG/ML FROM 180-240 D O, Route [Inhibitor]: ORAL, Species: RAT, Strain/Sex: SPRAGUE DAWLEY/FEMALE, Target Tissue: Type of Lesion: MAMMARY GLAND: ADENOCARCINOMA, FIBROADENOMA, Dose [Carcinogen]: 5 MG IN 0.2 ML SESAME OIL 1/2 D FOR 12 D BEGINNING AT 50 D OF AGE): 100%, 46%, 54%, p<0.001

CCCC(C(=O)OCCN(CC)CC)(c1ccccc1)c1ccccc1
tumour outcome (control, treated, inhibition, significance) (Carcinogen: URETHANE, 51-79-6, 50 MG/KG ONCE AT 24 HR AND 1 HR PRIOR TO CARCINOGEN DOSE THEN ONCE 24 HR AND 48 HR POST CARCINOGEN DOSE (STUDY DURATI, Route [Inhibitor]: INTRAPERITONEAL, Species: MOUSE, Strain/Sex: BALB/MALE, FEMALE, Target Tissue: Type of Lesion: LUNG: TUMOR, Dose [Carcinogen]: 0.5 G/KG IN 0.9% SALINE ONCE): 94%, 91%, 3%, not significant

COc1ccc(-c2cc(=S)ss2)cc1
tumour outcome (control, treated, inhibition, significance) (Carcinogen: 7,12-DIMETHYLBENZ[A]ANTHRACENE, 57-97-6, 200 PPM IN DIET FOR DURATION OF STUDY BEGINNING 1 WK PRIOR TO CARCINOGEN DOSE (STUDY DURATION: 107 D), Route [Inhibitor]: ORAL, Species: RAT, Strain/Sex: SPRAGUE-DAWLEY/FEMALE, Target Tissue: Type of Lesion: MAMMARY GLAND: ADENOCARCINOMA, Dose [Carcinogen]: 12 MG ONCE): 80%, 75%, 6%, not significant | tumour outcome (control, treated, inhibition, significance) (Carcinogen: 7,12-DIMETHYLBENZ[A]ANTHRACENE, 57-97-6, 400 PPM IN DIET FOR DURATION OF STUDY BEGINNING 1 WK PRIOR TO CARCINOGEN DOSE (STUDY DURATION: 107 D), Route [Inhibitor]: ORAL, Species: RAT, Strain/Sex: SPRAGUE-DAWLEY/FEMALE, Target Tissue: Type of Lesion: MAMMARY GLAND: ADENOCARCINOMA, Dose [Carcinogen]: 12 MG ONCE): 80%, 85%, -6%, not significant | tumour outcome (control, treated, inhibition, significance) (Carcinogen: AZOXYMETHANE, 25843-45-2, 100 PPM IN DIET BEGINNING 2 WK PRIOR TO CARCINOGEN TREATMENT AND CONTINUING FOR DURATION OF STUDY (STUDY DURATION: 56, Route [Inhibitor]: ORAL, Species: RAT, Strain/Sex: F344/MALE, Target Tissue: Type of Lesion: COLON: INVASIVE ADENOCARCINOMA, Dose [Carcinogen]: 15 MG/KG 1/WK FOR 2 WK): 34%, 11%, 68%, p<0.05 | tumour outcome (control, treated, inhibition, significance) (Carcinogen: AZOXYMETHANE, 25843-45-2, 100 PPM IN DIET BEGINNING 2 WK PRIOR TO CARCINOGEN TREATMENT AND CONTINUING FOR DURATION OF STUDY (STUDY DURATION: 56, Route [Inhibitor]: ORAL, Species: RAT, Strain/Sex: F344/MALE, Target Tissue: Type of Lesion: COLON: NONINVASIVE ADENOCARCINOMA, Dose [Carcinogen]: 15 MG/KG 1/WK FOR 2 WK): 53%, 47%, 11%, not significant | tumour outcome (control, treated, inhibition, significance) (Carcinogen: AZOXYMETHANE, 25843-45-2, 200 PPM IN DIET BEGINNING 2 WK PRIOR TO CARCINOGEN TREATMENT AND CONTINUING FOR DURATION OF STUDY (STUDY DURATION: 56, Route [Inhibitor]: ORAL, Species: RAT, Strain/Sex: F344/MALE, Target Tissue: Type of Lesion: COLON: INVASIVE ADENOCARCINOMA, Dose [Carcinogen]: 15 MG/KG 1/WK FOR 2 WK): 34%, 8%, 76%, p<0.01 | tumour outcome (control, treated, inhibition, significance) (Carcinogen: AZOXYMETHANE, 25843-45-2, 200 PPM IN DIET BEGINNING 2 WK PRIOR TO CARCINOGEN TREATMENT AND CONTINUING FOR DURATION OF STUDY (STUDY DURATION: 56, Route [Inhibitor]: ORAL, Species: RAT, Strain/Sex: F344/MALE, Target Tissue: Type of Lesion: COLON: NONINVASIVE ADENOCARCINOMA, Dose [Carcinogen]: 15 MG/KG 1/WK FOR 2 WK): 53%, 30%, 43%, p<0.05
